The numbers were not newly measured in patent US20260053818A1, “PHARMACEUTICAL FORMULATION FOR THE TREATMENT OF INFLAMMATORY CHANGES TO THE RECTUM” (Dr. Falk Pharma GmbH, priority 2015, published 2026), which cites them from elsewhere.

For the data set the following is noted: Merck Index.

Structures are written as SMILES. In brackets after ≈: the same amount, converted by molar mass.

Turning to `CCCC1O[C@@H]2C[C@H]3[C@@H]4CCC5=CC(=O)C=C[C@]5(C)[C@H]4[C@@H](O)C[C@]3(C)[C@]2(C(=O)CO)O1` (stereo partly shown) [budesonide], the solubility in water is 14 µg/mL (≈ 32.5 µM).
